Test results as given in ChEMBL document CHEMBL3045653, “A novel amino acid substitution Ala-122-Tyr in ALS confers high-level and broad resistance across ALS-inhibiting herbicides” (Pest Manag Sci, 2012).

Target: T1, Acetolactate synthase (Raphanus raphanistrum, UniProt J7HAW4)
T1 sequence (J7HAW4 whole entry): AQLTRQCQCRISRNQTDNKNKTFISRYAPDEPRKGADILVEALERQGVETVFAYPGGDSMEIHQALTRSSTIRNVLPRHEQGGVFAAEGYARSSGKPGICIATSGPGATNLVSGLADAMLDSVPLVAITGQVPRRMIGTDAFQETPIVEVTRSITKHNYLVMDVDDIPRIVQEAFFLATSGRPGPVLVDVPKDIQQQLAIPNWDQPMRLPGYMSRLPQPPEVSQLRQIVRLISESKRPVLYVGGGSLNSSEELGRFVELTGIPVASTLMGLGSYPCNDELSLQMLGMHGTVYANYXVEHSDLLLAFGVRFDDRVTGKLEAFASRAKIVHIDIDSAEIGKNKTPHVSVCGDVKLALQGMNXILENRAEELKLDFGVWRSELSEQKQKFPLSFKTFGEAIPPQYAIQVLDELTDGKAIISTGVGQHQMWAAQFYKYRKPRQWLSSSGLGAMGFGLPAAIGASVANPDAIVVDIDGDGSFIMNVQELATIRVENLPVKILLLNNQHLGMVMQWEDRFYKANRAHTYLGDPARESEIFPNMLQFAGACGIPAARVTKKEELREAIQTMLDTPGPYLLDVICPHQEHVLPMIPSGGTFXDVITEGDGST
Assay: Inhibition of ALS in ALS-herbicide-susceptible Raphanus raphanistrum […] (wild radish)
Settings: pooled result: one value given for 2 cell lines, strains, targets or settings; read-out: I50

## Cc1cc(C)nc(NC(=O)NS(=O)(=O)c2ccccc2C(=O)O)n1 [SULFOMETURON]
  IC50: 23 nM
